In patent publication US7635702B2, “Imidazole compounds as transforming growth factor (TGF) inhibitors” (Pfizer Inc., priority 2002, dated 2009):

Target: T1, ALK-5 (TβRI) (Homo sapiens, UniProt P36897)
T1 construct: using either the kinase domain of ALK5 with Smad3 as substrate; GST
T1 sequence (P36897 205-495 limits assumed): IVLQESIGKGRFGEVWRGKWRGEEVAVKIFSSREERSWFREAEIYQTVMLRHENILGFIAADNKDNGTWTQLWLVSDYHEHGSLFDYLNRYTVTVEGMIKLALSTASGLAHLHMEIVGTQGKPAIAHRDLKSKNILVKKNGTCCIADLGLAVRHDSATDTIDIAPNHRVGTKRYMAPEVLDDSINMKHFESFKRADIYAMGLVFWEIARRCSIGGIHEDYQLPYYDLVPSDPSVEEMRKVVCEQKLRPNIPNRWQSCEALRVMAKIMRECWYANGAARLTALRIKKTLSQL
Assay: ALK-5 (TβRI) kinase assay
Assay type: biochemical
Settings: GST-ALK5 with GST-Smad3 substrate, 33P-ATP
Description: The kinase assays were performed with 65 nM GST-ALK5 and 84 nM GST-Smad3 in 50 mM HEPES, 5 mM MgCl2, 1 mM CaCl2, 1 mM dithiothreitol, and 3_M ATP. Reactions were incubated with 0.5_Ci of [33 P]_ATP for 3 h at 30° C. Phosphorylated protein was captured on P-81 paper (Whatman, Maidstone, England), washed with 0.5% phosphoric acid, and counted by liquid scintillation. Alternatively, Smad3 or Smad1 protein was also coated onto FlashPlate Sterile Basic Microplates (PerkinElmer Life Sciences, Boston, Mass.). Kinase assays were then performed in Flash-Plates with same assay conditions using either the kinase domain of ALK5 with Smad3 as substrate or the kinase domain of ALK6 (BMP receptor) with Smad1 as substrate. Plates were washed three times with phosphate buffer and counted by TopCount (Packard Bio-science, Meriden, Conn.). (Laping, N.J. et al. Molecular Pharmacology 62:58-64 (2002)).

Compound: Cc1cccc(-c2[nH]cnc2-c2ccc3nnn(C)c3c2)n1 [Example 12, 1-Methyl-6-[5-(6-methyl-pyridin-2-yl)-1H-imidazol-4-yl]-1H-benzotriazole]
- IC50: ~44.5 nM
